Data reported in US9180155B2, “Compositions from Nigella sativa” (Bio Nexus, Ltd, priority 2013, dated 2015).

Test system: 3T3-L1 adipocytes
Assay: Lipolysis (glycerol assay) in 3T3-L1 adipocytes
Assay type: cell-based, murine
Conditions: forskolin 82 μg/mL, test materials 5 μg/mL (FIG. 9)
Description: Culture and treatment of 3T3-L1 adipocytes and C2C12 myocytes was as described in Example 5. Concentrations of the forskolin positive control and test materials are listed in FIG. 9 for adipocytes and FIG. 10 for myocytes. Free fatty acid release from 3T3-L1 adipocytes or C2C12 myocytes was quantified by measuring glycerol secretion into the medium. Glycerol was measured spectrophotometrically using the Free Glycerol Determination Kit ([…], Sigma) and an EL 312e Microplate BIO-KINETICS spectrophotometer (BioTek, Winooski, Vt.). Glycerol release from adipocytes and myocytes was expressed, respectively, as the percent increase in free fatty acid secretion (FIG. 9) and relative glycerol content (glycerol index FIG. 10) ±95% confidence intervals of eight observations for one of three representative experiments.

For `CC1=CC(=O)C(C(C)C)=CC1=O` [Thymoquinone, thymoquinone], the “free fatty acid release in adipocytes” value was “induced free fatty acid release”.
